Source: ChEMBL document CHEMBL1159097, “Synthesis and structural and pharmacological properties of cyclopropane-based conformationally restricted analogs of 4-methylhistamine as histamine H3/H4 receptor ligands” (Bioorg Med Chem, 2010)

Legend:
Histamine H3 receptor [1] = molecular target: T1, Histamine H3 receptor (Homo sapiens, UniProt Q9Y5N1); assay: Binding affinity to histamine H3 receptor
Histamine H4 receptor = Histamine H4 receptor (Homo sapiens, UniProt Q9H3N8); assay: Displacement of [3H]histamine from human histamine H4 receptor
Histamine H4 receptor, sequence (Q9H3N8 whole entry): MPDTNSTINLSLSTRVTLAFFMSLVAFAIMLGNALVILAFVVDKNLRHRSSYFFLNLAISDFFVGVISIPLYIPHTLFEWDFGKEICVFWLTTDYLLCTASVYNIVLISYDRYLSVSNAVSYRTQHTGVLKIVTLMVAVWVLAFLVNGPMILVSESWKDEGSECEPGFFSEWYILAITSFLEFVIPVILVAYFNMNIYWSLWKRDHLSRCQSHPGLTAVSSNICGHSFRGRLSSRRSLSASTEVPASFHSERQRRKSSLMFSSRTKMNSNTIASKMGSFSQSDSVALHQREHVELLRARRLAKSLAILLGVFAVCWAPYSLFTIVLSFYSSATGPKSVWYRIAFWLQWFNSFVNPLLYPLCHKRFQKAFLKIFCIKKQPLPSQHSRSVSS

Histamine H3 receptor [2] = molecular target: T1, Histamine H3 receptor; assay: Displacement of [3H]Nalpha-methylahistamine from human histamine H3 receptor

T1 sequence (Q9Y5N1 whole entry): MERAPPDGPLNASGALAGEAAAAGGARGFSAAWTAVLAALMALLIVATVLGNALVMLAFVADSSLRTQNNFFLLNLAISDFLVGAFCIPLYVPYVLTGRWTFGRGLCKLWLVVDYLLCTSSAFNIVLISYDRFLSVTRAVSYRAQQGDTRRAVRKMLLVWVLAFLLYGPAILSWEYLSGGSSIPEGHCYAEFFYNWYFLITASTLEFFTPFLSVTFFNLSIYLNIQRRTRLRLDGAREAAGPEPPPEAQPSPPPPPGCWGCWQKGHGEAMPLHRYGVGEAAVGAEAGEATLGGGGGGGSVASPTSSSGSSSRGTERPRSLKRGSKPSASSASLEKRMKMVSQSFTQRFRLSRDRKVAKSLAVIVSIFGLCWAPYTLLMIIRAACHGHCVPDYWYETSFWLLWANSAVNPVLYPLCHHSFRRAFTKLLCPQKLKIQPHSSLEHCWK

SMILES | Ki (Histamine H3 receptor [1]) [nM] | Ki (Histamine H4 receptor) [nM] | Ki (Histamine H3 receptor [2]) [nM]
NCC[C@@H]1C[C@@H]1c1cnc[nH]1 | 1.3 |  | 
Cc1nc[nH]c1[C@@H]1C[C@H]1CCNCc1ccc(Cl)cc1 |  | 148 | 38.7
Cc1[nH]cnc1[C@@H]1C[C@H]1CNCc1ccc(Cl)cc1 |  | > 1000 | > 1000
